Measurements: publication PMC12304301, “The Drosophila DEG/ENaC PPK12 is a Na^+ leak channel with a low Na^+ affinity” (Scientific Reports, 2025)

Experiments:
[1] = target: T1, PPK12 (Drosophila melanogaster, UniProt Q9W250); test: two-electrode voltage clamp of Xenopus oocytes, block of NMDG-sensitive constitutive current; assay type: cell-based
T1 construct: cRNA expressed alone in Xenopus laevis oocytes; DEG/ENaC family members are trimers
T1 sequence (Q9W250 1-569): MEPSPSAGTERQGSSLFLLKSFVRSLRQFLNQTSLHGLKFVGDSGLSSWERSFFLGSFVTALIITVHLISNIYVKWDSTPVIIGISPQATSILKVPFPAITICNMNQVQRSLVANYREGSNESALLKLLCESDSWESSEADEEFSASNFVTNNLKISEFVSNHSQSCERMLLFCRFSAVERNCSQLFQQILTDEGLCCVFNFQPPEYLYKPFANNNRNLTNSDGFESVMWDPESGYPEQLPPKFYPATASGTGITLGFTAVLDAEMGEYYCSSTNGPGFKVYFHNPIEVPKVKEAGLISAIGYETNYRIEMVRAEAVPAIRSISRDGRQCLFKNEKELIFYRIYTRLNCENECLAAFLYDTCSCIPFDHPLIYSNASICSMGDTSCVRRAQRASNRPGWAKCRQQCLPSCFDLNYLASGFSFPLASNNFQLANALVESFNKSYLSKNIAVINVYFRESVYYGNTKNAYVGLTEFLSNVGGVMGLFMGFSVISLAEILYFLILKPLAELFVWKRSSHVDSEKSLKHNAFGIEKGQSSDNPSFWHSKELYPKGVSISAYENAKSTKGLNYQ

[2] = target: T1, PPK12; test: two-electrode voltage clamp of Xenopus oocytes, inhibition of total constitutive current; assay type: cell-based; conditions: 140 mM NaCl bath, pH 7.4, -70 mV; only part of current carried by PPK12

Structure (SMILES) | IC50 [1] [µM] | % inhibition at 100 μM [2]
N=C(N)NC(=O)c1nc(Cl)c(N)nc1N [amiloride] | 220 ± 20 | 
NC(=NC(=O)c1nc(Cl)c(N)nc1N)NCc1ccccc1 [benzamil] |  | amiloride, its analog benzamil, and diminazene–partially and reversibly inhibited constitutive currents in PPK12-expressing oocytes
N=C(N)c1ccc(/N=N/Nc2ccc(C(=N)N)cc2)cc1 [diminazene] | 110 ± 10 | 
